assay: Human HepG2 cell viability assay in 384 well format; type: toxicity, cell-based; set-up: dose 125 nL, time 70.5 hour; cytotoxicity at 70.5 h: concentration not given beside the values; conditions: HepG2 cells, read-out: Inhibition

Row | SMILES | cytotoxicity at 70.5 h
1 | Cc1cc(N2CCC3(CCC(=O)N(CCO)C3)CC2)nc(N(C)C)n1 | -3.81%
2 | Cc1n[nH]c(C)c1CCC(=O)N1CCC(O)(CN2CCOCC2)C1 (stereo not drawn) | 15.2%
3 | COc1ncc(-c2ccc(NC(C)=O)cc2)c(OC)n1 | -11%
4 | Cc1ccc(CN(C)C(=O)CN2CCCCC2Cn2cncn2)cc1 (stereo not drawn) | 22.7%
5 | CC(=O)N1CCN(C(=O)NCc2ccccc2Cn2ccnc2)CC1 | -14.1%
6 | O=C(CC1CC1)N1CCN(Cc2ccncc2)c2ncccc2C1 | -11.9%
7 | CC(C)(C(=O)N1CCCC(OCc2cccnc2)C1)n1cccc1 (stereo not drawn) | -4.94%
8 | O=C(CN1CCCS1(=O)=O)Nc1ccc(OC(F)F)cc1 | -9.68%
9 | NC(=O)C1CCN(C(=O)NCc2ccc3c(c2)OCCO3)CC1 | -9.87%
10 | CC(c1cccc(-c2ncccc2F)c1)N(C)C (stereo not drawn) | -14.8%
11 | COc1c(C2CCCN2CC(=O)N(C)Cc2ccco2)c(C)nn1C (stereo not drawn) | -5.02%
12 | O=C(CN1CCC(c2nnc(C(F)(F)F)o2)CC1)Nc1cccnc1 | -3.9%
13 | Cn1ccc(C(=O)NCc2ccccc2CN2CCCC2)cc1=O | 16%
14 | CC1CN(C(=O)c2nccnc2N)c2ccc(F)cc2O1 (stereo not drawn) | 1.2%
15 | CN1CCCN(S(=O)(=O)c2cn(C)cn2)c2cc(F)ccc21 | 4.76%
16 | Cc1ccc(-c2noc(CC[C@@H]3CCCN4CCCC[C@H]34)n2)nn1 | -3.37%
17 | Cc1cc(Cl)ccc1NCc1ccc(C(=O)N(C)C)[nH]1 | -4.01%
18 | Cc1csc(N2CCN(C(=O)C(C)n3cncn3)CC2)n1 (stereo not drawn) | 0.112%
19 | Cc1csc(CNC(=O)N(C)Cc2ccc3c(c2)OCCO3)n1 | -10.6%
20 | O=C(CCC1CC1)N1CCC(n2cc(C3(O)CCCC3)nn2)CC1 | 24.3%
21 | Cc1ccccc1-c1noc(C2CC(C(C)C)=NO2)n1 (stereo not drawn) | -0.419%
22 | CC(C)Oc1cccc(-c2nc3c([nH]2)CCCNC3=O)c1 | 5.17%
23 | COc1cccc(NC(=O)Nc2ccc3c(c2)CC(=O)N3)c1 | -16.9%

Row | SMILES | cytotoxicity at 70.5 h
24 | Cc1csc(NC(=O)[C@@H]2C[C@H]3[C@H](CCN3c3ncccn3)O2)n1 | 18.3%
25 | Cc1nnc([C@H]2CC[C@@H]3[C@@H](CCN3CC3CCOCC3)O2)o1 | -2.48%
26 | CN(Cc1nc(CC2CC2)no1)CC1Cc2ccccc2O1 (stereo not drawn) | -6.88%
27 | CCC(C)(NCc1nc(C)c(C)o1)c1nccs1 (stereo not drawn) | 15.6%
28 | O=C(c1ccc(Cl)c(Cl)c1)N1CCCCC1C1OCCO1 (stereo not drawn) | -4.22%
29 | Cc1nc(C(C)NC(=O)c2cn(CCC3CCCCC3)nn2)n[nH]1 (stereo not drawn) | -23.9%
30 | Cc1nc(C)n(CC2CCCN2Cc2cn3ccsc3n2)n1 (stereo not drawn) | 3.39%
31 | COC(=O)CC1CCN(C(=O)c2ccc(C)cc2)CC1 | -4.4%
32 | Cc1nn(C)cc1S(=O)(=O)N[C@@H]1CCC[C@@H](n2ccnc2)[C@@H]1O | -6.03%
33 | CCN(CC)CCSc1ncnc2[nH]ncc12 | 1.79%
34 | CCc1noc(CN(CC)Cc2cc3ccc(F)cc3[nH]c2=O)n1 | 9.1%
35 | CC(=O)N1CCCC2(CCN(c3nncs3)C2)C1 (stereo not drawn) | -4.07%
36 | CC(=O)C1(c2ccccc2)CCN(C(=O)CC2CNCCO2)CC1 (stereo not drawn) | -31.5%
37 | Cc1nnc(SCC(=O)c2cc3c(cc2Cl)NC(=O)C3)s1 | -30.2%
38 | CC1(C)Cc2ccc(C(=O)NC3CCOCC3)c(O)c2O1 | 7.2%
39 | CC(C)(C)c1ccn(C2(C(=O)O)CCN(c3ncccc3C#N)CC2)n1 | -2.37%
40 | N#Cc1ccc(N2CCC(OCCc3ccccc3)CC2)nc1 | -13.8%
41 | CN(C[C@@H]1CCC[C@@H]2CN(Cc3cccnc3)C[C@@H]21)C1CC1 | -1.32%
42 | CCn1c(CN2CCOC(Cn3cncn3)C2)nc2c(F)cccc21 (stereo not drawn) | 15.4%
43 | c1nc(-c2nc(C3CCOC3)no2)cs1 (stereo not drawn) | -1.71%
44 | Cc1cnc(C(=O)N2C[C@H]3CC[C@@H]2CN(c2cnccn2)C3)cn1 | -2.4%
45 | CC(O)CCN(C)C(=O)Nc1ccc(Br)cc1 (stereo not drawn) | 26.9%
46 | COCCN(C)CCN1CC2(CCN(C3CCOC3)CC2)OC1=O (stereo not drawn) | -0.423%

Row | SMILES | cytotoxicity at 70.5 h
47 | Cc1nc[nH]c1CN1CCCC12CCN(c1ccccn1)CC2 | -3.64%
48 | Cc1nn(CC(C)C)c(N(C)C)c1CNCCC(=O)NC(C)C | 23%
49 | CCn1cc(CNC(=O)C2CCCC2)cn1 | -17.8%
50 | O=C(CCN1CCCCO1)N1CCC(CO)(CCc2ccccc2)CC1 | -10.2%
51 | CCc1nnc2n1CC(CNCc1nc(-c3ccsc3)no1)CC2 (stereo not drawn) | -4.57%
52 | CCCc1nc(C(=O)N2CCN(C(=O)c3ccc(OC)cc3)CC2)cs1 | -5.88%
53 | CCS(=O)(=O)N1CCO[C@H]2[C@H](OCCCn3cccn3)CC[C@@H]21 | -9.45%
54 | CC1CCCN(C(=O)c2occc2COc2cccc(C#N)c2)C1 (stereo not drawn) | 4.5%
55 | CCN(Cc1ccc2c(c1)OCO2)C(=O)NCc1nc(C)cs1 | -9.62%
56 | CCOCCC(=O)NCC1COc2c(cccc2OC)C1 (stereo not drawn) | -4.38%
57 | Cc1ccc(CN(C(=O)NCC(c2cccs2)N(C)C)C2CC2)o1 (stereo not drawn) | -5.44%
58 | Cc1ccc(N2CCO[C@H]3CN(Cc4ccccn4)C[C@H]32)nn1 | -9.99%
59 | CNC(=O)[C@H]1C[C@@H]2CCN(Cc3nccs3)C[C@H]2O1 | -6.34%
60 | CC(CC(=O)N1CCCS1(=O)=O)c1ccccc1C(F)(F)F (stereo not drawn) | 3.27%
61 | CC(C)(C)c1ncc(C(=O)NCc2cccc(C(=O)N3CCCC3)c2)s1 | -1.76%
62 | Cc1nc(C)n(CC2CCCN2c2ncnc3sccc23)n1 (stereo not drawn) | -7.8%
63 | Cc1cc(C)n(C2CN(Cc3noc(-c4ccccc4)n3)C2)n1 | -4.76%
64 | O=C(c1cnc(-c2ccco2)s1)N1CCCC1Cn1cccn1 (stereo not drawn) | 1.15%
65 | CN(C)c1ncc2c(n1)C1(CCN(CC3CC3)C1)COC2 (stereo not drawn) | -8.15%
66 | CCOC(=O)C(C)Nc1ccc(CCN2CCOCC2)cc1 (stereo not drawn) | -16.3%
67 | Cn1cnc2c1C(COCc1cccnc1)N(Cc1ccccn1)CC2 (stereo not drawn) | -3.62%
68 | CCC1CN(c2cnn(C)c(=O)c2Cl)CCO1 (stereo not drawn) | 5.82%
69 | CN1CCC2(CC1)CC(NC(=O)c1csnn1)c1ccccc1O2 (stereo not drawn) | -0.343%

Row | SMILES | cytotoxicity at 70.5 h
70 | Cc1cn(-c2ccccc2)nc1NS(=O)(=O)c1ccc(C(=O)O)cc1 | 10.8%
71 | CC1=C[C@@H](CN2CCC(CO)CC2)[C@H](C(C)C)C[C@H]1Cc1nnc(C)o1 | -1.39%
72 | Cc1nn2c(NC(=O)CSc3ncccn3)csc2nc1=O | -12.6%
73 | c1cc2c(cc1-c1noc3c1CN(C1CCSC1)CC3)OCO2 (stereo not drawn) | -12.7%
74 | CCc1nc(CNC2CCN(S(C)(=O)=O)CC2)cs1 | -0.997%
75 | Cc1nc(CN2Cc3nccn3CC(CN3CCOCC3)C2)cs1 (stereo not drawn) | -2.85%
76 | Cc1noc(C[C@@H]2COC[C@H]3CN(S(=O)(=O)C4CC4)C[C@@H]23)n1 | -5.01%
77 | Cc1csc(C2CCCN(C(=O)c3c[nH]c(C)n3)C2)n1 (stereo not drawn) | -1.13%
78 | Cc1ccn(-c2ccc(NCc3cccnc3N3CCCCC3)nn2)n1 | 12.6%
79 | COCCC(=O)Nc1ccnn1-c1ccccc1 | 1.36%
80 | c1ccc(OC[C@]23COC[C@H]2CN(Cc2ccoc2)C3)nc1 | -12.9%
81 | COc1ccc(F)cc1-c1nc2c([nH]1)c(C1CC1)nn2C | -4.46%
82 | COCCNC(=O)NC1CCN(c2cnn(C)c2)C1 (stereo not drawn) | -4.09%
83 | Cc1ccccc1C(=O)N1CCO[C@H]2[C@H](OCCN(C)C)CC[C@@H]21 | -2.16%
84 | COc1cccc(C(=O)N2CCc3c(nc(N)[nH]c3=O)C2)c1OC | -2.24%
85 | CCc1cnc(C)nc1NC1CC(=O)N(CC2CCCCC2)C1 (stereo not drawn) | -8.14%
86 | COc1ccc(Br)c(C(=O)NC(CC(=O)O)c2cccs2)c1 (stereo not drawn) | -11.5%
87 | COc1ccc(CN2CCO[C@H]3[C@H](OCCN4CCCC4)CC[C@@H]32)cc1 | -9.88%
88 | Cc1cc(C)cc(OCC(O)CN2CCN(c3nccs3)CC2)c1 (stereo not drawn) | 8.55%
89 | Fc1cccc2[nH]c(CN3CCc4cncnc4C3)nc12 | -7.7%
90 | Cc1cc(=O)[nH]c(SCC(=O)N(C)CC2Cc3ccccc3CN2C)n1 (stereo not drawn) | -6.08%
91 | Cc1cnn(CC2CN(Cc3nnc(C(C)C)o3)CCO2)c1 (stereo not drawn) | -6.07%
92 | Cc1cc(CN2Cc3ccccc3CC2c2nnc(C)o2)on1 (stereo not drawn) | -6.94%

Row | SMILES | cytotoxicity at 70.5 h
93 | CC1(C)CN(C(CNC2=NCCN2)c2ccc(Cl)cc2)CCO1 (stereo not drawn) | -5.1%
94 | CNC(=O)c1cc(OC)c(OC)cc1N(C)S(C)(=O)=O | -7.84%
95 | CCCS(=O)(=O)NC1CCc2c(ccc(=O)n2CC2CC2)C1 (stereo not drawn) | -8.69%
96 | COc1cc(Cl)c(NC(=O)c2cc3c([nH]c2=O)CCCC3=O)cc1OC | -7.89%
97 | COc1ccc(CNC(=O)N(C)CC(C)(C)O)cc1OC | -109%
98 | O=C(CSCc1ccncc1)NCC1CCN(C2CC2)C1 (stereo not drawn) | 1.83%
99 | CCOCCN1CCN(C(C)c2nc(C3CC3)no2)CC1 (stereo not drawn) | 12.1%
100 | CN(C)C(=O)N1CCN(C(=O)Nc2nc(-c3ccccc3)ns2)CC1 | -5.92%
101 | COc1ccccc1[C@@H]1CN(Cc2nccn2C)C[C@H]1C(=O)O | -3.84%
102 | O=C(O)C1(Cc2cc(-c3ccc(F)cc3F)no2)CCOCC1 | 20.5%
103 | Cn1ccc2c(ccn2CC(=O)Nc2ccc(Br)cc2)c1=O | 30.5%
104 | COCCO[C@H]1CCN(C(=O)C2CCOCC2)[C@H]1Cc1ccncc1 | 29.3%
105 | Cc1ccc(C(=O)N2CCSCC2)cc1N1CCNC1=O | -5.73%
106 | FC(F)(F)C1CCCn2c(CNCc3ccsc3)nnc21 (stereo not drawn) | -9.55%
107 | CS(=O)(=O)CCN1CCCC1c1noc(C2CC2)n1 (stereo not drawn) | 0.883%
108 | COCc1ccccc1C(=O)N1CCCC(c2cc(C)[nH]n2)C1 (stereo not drawn) | 26.2%
109 | COc1cc(C(=O)NCCCO)cc2occc12 | -9.45%
110 | COCC(=O)N1CCO[C@H]2[C@H](OCc3cccnc3)CC[C@@H]21 | 1.22%
111 | Cc1cc(C)c2nc(C)c(C(=O)N3CCC(CCN(C)C)CC3)cc2c1 | -1.81%
112 | CN1C(=O)C(c2ccccc2)CC12CCN(CCN1CCCC1=O)CC2 (stereo not drawn) | 12.2%
113 | CCN(CC)C(=O)CN1CCCC1C(=O)N(C)C (stereo not drawn) | -11.8%
